Source: ChEMBL document CHEMBL4219182, “One-pot, multicomponent synthesis of 2,3-disubstituted quinazolin-ones with potent and selective activity against Toxoplasma gondii” (Bioorg Med Chem Lett, 2018)
Active and inactive are the calls of the source. No cut-off for these calls is given here.

Tests used:
[1] = Therapeutic index, ratio of TD50 for HFF to IC50 for tachyzoite stage of Toxoplasma gondii expressing beta-gal infected in HFF; assay type: toxicity; conditions: human; read-out: TI
[2] = Cytotoxicity against HFF by CellTiter96 AQueous one solution cell proliferation assay; assay type: cell-based; conditions: human, HFF cells; read-out: TD50 (the source's name)
Toxoplasma gondii [3] = assay: Antiparasitic activity against tachyzoite stage of Toxoplasma gondii expressing beta-gal infected in HFF after 4 days by […] based assay; assay type: functional, organism-based; conditions: 96 h
Toxoplasma gondii [4] = assay: Antiparasitic activity against tachyzoite stage of Toxoplasma gondii infected in HFF assessed as inhibition of parasite replication by measuring increase in parasitophorous vacuoles containing 1 tachyzoites at 10 uM after 24 hrs by microscopic analysis; assay type: functional, organism-based
Toxoplasma gondii [5] = assay: Antiparasitic activity against tachyzoite stage of Toxoplasma gondii infected in HFF assessed as inhibition of parasite replication by measuring parasitophorous vacuoles containing 1 or 2 tachyzoites at 10 uM after 24 hrs by microscopic analysis; assay type: functional
Toxoplasma gondii [6] = assay: Antiparasitic activity against tachyzoite stage of Toxoplasma gondii infected in HFF assessed as reduction in parasite invasion at 10 uM pretreated with parasite for 20 mins followed by infection in HFF measured by immunofluorescence staining based assay; assay type: functional, organism-based
Toxoplasma gondii [7] = assay: Antiparasitic activity against tachyzoite stage of Toxoplasma gondii infected in HFF assessed as reduction in parasite attachment to host cell at 10 uM pretreated with parasite for 20 mins followed by infection in HFF measured by immunofluorescence staining based assay; assay type: functional, organism-based
Toxoplasma gondii [8] = assay: Antiparasitic activity against tachyzoite stage of Toxoplasma gondii infected in HFF assessed as inhibition of parasite replication by measuring parasitophorous vacuoles containing 1, 2, 4 and 8 tachyzoites at 10 uM after 24 hrs by microscopic analysis; assay type: functional, organism-based

## O=c1c2ccccc2nc(-c2ccc(OCc3ccccc3)cc2)n1-c1ccc(Br)cc1
[1]
  selectivity ratio: 2
[2]
  CC50: 5 µM
Toxoplasma gondii [3]
  IC50: 3 µM
  IC90: 12 µM
Toxoplasma gondii [4]
  inhibition: Active
Toxoplasma gondii [5]
  inhibition at 10 µM: > 75%
Toxoplasma gondii [6]
  Activity: Active

## CCCCCCn1c(-c2ccc(N(C)C)cc2)nc2ccccc2c1=O
[1]
  selectivity ratio: 3
[2]
  CC50: 50 µM
Toxoplasma gondii [3]
  IC50: 18 µM
  IC90: 52 µM

## Oc1nc(-c2ccc(F)cc2)nc2ccccc12
[1]
  selectivity ratio: 11
[2]
  CC50: ≥ 320 µM
Toxoplasma gondii [3]
  IC50: 29 µM
  IC90: 260 µM

## CCCCCCn1c(-c2ccc(Br)cc2)nc2ccccc2c1=O
[1]
  selectivity ratio: 1
[2]
  CC50: 88 µM
Toxoplasma gondii [3]
  IC50: 60 µM
  IC90: 193 µM
Toxoplasma gondii [4]
  inhibition: Active
Toxoplasma gondii [6]
  Activity: Active
Toxoplasma gondii [7]
  Activity: Active

## C[C@@H]1CC[C@H]2[C@@H](C)C(=O)O[C@@H]3O[C@@]4(C)CC[C@@H]1[C@]32OO4 [ARTEMISININ]
[1]
  selectivity ratio: 160
[2]
  CC50: ≥ 320 µM
Toxoplasma gondii [3]
  IC50: 2 µM
  IC90: 19 µM

## O=c1c2ccccc2nc(-c2ccc(OCc3ccccc3)cc2)n1Cc1ccccc1
[1]
  selectivity ratio: 25
[2]
  CC50: ≥ 320 µM
Toxoplasma gondii [3]
  IC50: 13 µM
  IC90: 71 µM
Toxoplasma gondii [5]
  inhibition at 10 µM: > 70%
Toxoplasma gondii [6]
  Activity: inactive
Toxoplasma gondii [7]
  Activity: inactive

## O=c1c2ccccc2nc(-c2ccc(Br)cc2)n1-c1ccc(Br)cc1
[1]
  selectivity ratio: 7
[2]
  CC50: ≥ 320 µM
Toxoplasma gondii [3]
  IC50: 44 µM
  IC90: 126 µM

## CN(C)c1ccc(-c2nc3ccccc3c(=O)n2CCc2ccc(O)cc2)cc1
[1]
  selectivity ratio: 2
[2]
  CC50: 196 µM
Toxoplasma gondii [3]
  IC50: 112 µM
  IC90: 353 µM

## COc1ccc(-c2nc3ccccc3c(=O)n2-c2ccc(Br)cc2)cc1
[1]
  selectivity ratio: 6
[2]
  CC50: 196 µM
Toxoplasma gondii [3]
  IC50: 31 µM
  IC90: 83 µM

## Oc1nc(-c2cccnc2)nc2ccccc12
[1]
  selectivity ratio: 3
[2]
  CC50: ≥ 320 µM
Toxoplasma gondii [3]
  IC50: 94 µM
  IC90: 225 µM

## COc1ccccc1-c1nc(O)c2ccccc2n1
[1]
  selectivity ratio: 5
[2]
  CC50: 305 µM
Toxoplasma gondii [3]
  IC50: 56 µM
  IC90: 266 µM

## COc1ccc(-n2c(-c3ccc4c(c3)OCO4)nc3ccccc3c2=O)cc1
[1]
  selectivity ratio: 8
[2]
  CC50: ≥ 320 µM
Toxoplasma gondii [3]
  IC50: 40 µM
  IC90: 91 µM

## O=c1[nH]c(-c2ccc(OCc3ccccc3)cc2)nc2ccccc12
[1]
  selectivity ratio: 2
[2]
  CC50: ≥ 320 µM
Toxoplasma gondii [3]
  IC50: 153 µM
  IC90: 4990 µM

## CN(C)c1ccc(-c2nc3ccccc3c(=O)n2Cc2ccccc2)cc1
[1]
  selectivity ratio: 11
[2]
  CC50: 133 µM
Toxoplasma gondii [3]
  IC50: 12 µM
  IC90: 60 µM

## CCCCCCCCCCn1c(-c2ccc(N(C)C)cc2)nc2ccccc2c1=O
[1]
  selectivity ratio: 7
[2]
  CC50: ≥ 320 µM
Toxoplasma gondii [3]
  IC50: 49 µM
  IC90: 170 µM

## CN(C)c1ccc(-c2nc3ccccc3c(=O)n2C2CCCCC2)cc1
[1]
  selectivity ratio: 7
[2]
  CC50: 112 µM
Toxoplasma gondii [3]
  IC50: 15 µM
  IC90: 67 µM

## O=c1[nH]c(-c2ccc3c(c2)OCO3)nc2ccccc12
[1]
  selectivity ratio: 6
[2]
  CC50: ≥ 320 µM
Toxoplasma gondii [3]
  IC50: 50 µM
  IC90: 443 µM

## O=c1[nH]c(-c2ccc(OC(F)(F)F)cc2)nc2ccccc12
[1]
  selectivity ratio: 12
[2]
  CC50: ≥ 320 µM
Toxoplasma gondii [3]
  IC50: 27 µM
  IC90: 447 µM

## CN(C)c1ccc(-c2nc(O)c3ccccc3n2)cc1
[1]
  selectivity ratio: 23
[2]
  CC50: ≥ 320 µM
Toxoplasma gondii [3]
  IC50: 14 µM
  IC90: 281 µM
Toxoplasma gondii [8]
  inhibition: inactive
Toxoplasma gondii [6]
  Activity: Active
Toxoplasma gondii [7]
  Activity: Active

## CC(C)CCn1c(-c2ccc(OCc3ccccc3)cc2)nc2ccccc2c1=O
[1]
  selectivity ratio: 10
[2]
  CC50: 118 µM
Toxoplasma gondii [3]
  IC50: 12 µM
  IC90: 55 µM

## O=c1c2ccccc2nc(-c2ccc(OCc3ccccc3)cc2)n1CCc1ccc(O)cc1
[1]
  selectivity ratio: 13
[2]
  CC50: 229 µM
Toxoplasma gondii [3]
  IC50: 17 µM
  IC90: 52 µM

## O=c1c2ccccc2nc(-c2ccc(OCc3ccccc3)cc2)n1CCc1cc2ccccc2[nH]1
[1]
  selectivity ratio: 2
[2]
  CC50: ≥ 320 µM
Toxoplasma gondii [3]
  IC50: 154 µM
  IC90: 724 µM

## CC(C)CCn1c(-c2ccc(N(C)C)cc2)nc2ccccc2c1=O
[1]
  selectivity ratio: 2
[2]
  CC50: 85 µM
Toxoplasma gondii [3]
  IC50: 35 µM
  IC90: 116 µM

## CCCCCCn1c(-c2ccc(OCc3ccccc3)cc2)nc2ccccc2c1=O
[1]
  selectivity ratio: 18
[2]
  CC50: 178 µM
Toxoplasma gondii [3]
  IC50: 10 µM
  IC90: 45 µM
Toxoplasma gondii [8]
  inhibition: inactive
Toxoplasma gondii [6]
  Activity: Active
Toxoplasma gondii [7]
  Activity: Active

## O=c1c2ccccc2nc(-c2ccc(OCc3ccccc3)cc2)n1C1CCCCC1
[1]
  selectivity ratio: 53
[2]
  CC50: ≥ 320 µM
Toxoplasma gondii [3]
  IC50: 6 µM
  IC90: 46 µM
Toxoplasma gondii [5]
  inhibition at 10 µM: > 70%
Toxoplasma gondii [6]
  Activity: inactive
Toxoplasma gondii [7]
  Activity: inactive

## COc1ccc(-c2nc3ccccc3c(=O)[nH]2)cc1
[1]
  selectivity ratio: 6
[2]
  CC50: 125 µM
Toxoplasma gondii [3]
  IC50: 20 µM
  IC90: 121 µM

## CCCCCCCCCCn1c(-c2ccc(OCc3ccccc3)cc2)nc2ccccc2c1=O
[1]
  selectivity ratio: 13
[2]
  CC50: ≥ 320 µM
Toxoplasma gondii [3]
  IC50: 25 µM
  IC90: 119 µM

## COc1ccc(-n2c(-c3ccc(OCc4ccccc4)cc3)nc3ccccc3c2=O)cc1
[1]
  selectivity ratio: 1
[2]
  CC50: 4 µM
Toxoplasma gondii [3]
  IC50: 4 µM
  IC90: 14 µM
Toxoplasma gondii [6]
  Activity: Active
Toxoplasma gondii [7]
  Activity: Active

## COc1ccc(-n2c(-c3ccc(Br)cc3)nc3ccccc3c2=O)cc1
[1]
  selectivity ratio: 10
[2]
  CC50: ≥ 320 µM
Toxoplasma gondii [3]
  IC50: 32 µM
  IC90: 81 µM

## O=c1[nH]c(-c2ccc(Br)cc2)nc2ccccc12
[1]
  selectivity ratio: 3
[2]
  CC50: ≥ 320 µM
Toxoplasma gondii [3]
  IC50: 92 µM
  IC90: 414 µM
Toxoplasma gondii [4]
  inhibition: Active
Toxoplasma gondii [6]
  Activity: Active
Toxoplasma gondii [7]
  Activity: Active

## CCCCCCn1c(-c2ccc(OC)cc2)nc2ccccc2c1=O
[1]
  selectivity ratio: 4
[2]
  CC50: 42 µM
Toxoplasma gondii [3]
  IC50: 10 µM
  IC90: 48 µM

## O=C1C(O)=C([C@H]2CC[C@H](c3ccc(Cl)cc3)CC2)C(=O)c2ccccc21 [ATOVAQUONE]
[1]
  selectivity ratio: 111
[2]
  CC50: 21 µM
Toxoplasma gondii [3]
  IC50: 0.2 µM
  IC90: 0.6 µM

## CC(C)=CCCC(C)=CCn1c(-c2ccc(OCc3ccccc3)cc2)nc2ccccc2c1=O
[1]
  selectivity ratio: 46
[2]
  CC50: ≥ 320 µM
Toxoplasma gondii [3]
  IC50: 7 µM
  IC90: 58 µM
Toxoplasma gondii [5]
  inhibition at 10 µM: > 70%
Toxoplasma gondii [6]
  Activity: inactive
Toxoplasma gondii [7]
  Activity: inactive
